Source: publication PMC12494546, “Structural basis of heme scavenging by the ChtA and HtaA hemophores in Corynebacterium diphtheriae” (The Journal of Biological Chemistry, 2025)
Several values for one entry are separate records, joined by “and”; a condition that tells them apart may be missing. Equal values may be shown once.

How the values were obtained:
ChtA^CR Y178H = experiment: ITC of hemin binding to ChtA^CR Y178H; set-up: species or system Corynebacterium diphtheriae; conditions: 25 °C, average of three replicates
Excerpt: (§1) Protein samples were equilibrated in titration buffer supplemented with 5% (v/v) DMSO. […] Binding isotherms were fit to a one-site binding model using the program ORIGIN ([91]).

ChtA^CR K177G = experiment: ITC of hemin binding to ChtA^CR K177G; set-up: species or system Corynebacterium diphtheriae; conditions: 25 °C, average of three replicates
Excerpt: as §1

ChtA^CR K177G + Y178H = experiment: ITC of hemin binding to ChtA^CR K177G + Y178H; set-up: species or system Corynebacterium diphtheriae; conditions: 25 °C, average of three replicates
Excerpt: as §1

ChtA^CR Y178A = experiment: ITC of hemin binding to ChtA^CR Y178A; set-up: species or system Corynebacterium diphtheriae
Excerpt: as §1

ChtA^CR Y129A = experiment: ITC of hemin binding to ChtA^CR Y129A; set-up: species or system Corynebacterium diphtheriae
Excerpt: as §1

[1] = molecular target: HtaA^CR1 (residues S37-G214); experiment: Estimated hemin KD from native ESI-MS partitioning; type: binding, Corynebacterium diphtheriae; conditions: read-out: estimated KD for hemin, from nESI-MS Krel using ITC value of ChtA^CR as reference
Excerpt: (§2) The C. diphtheriae hemin-uptake system contains six CR domains that are located at distinct sites outside the cell (Fig. 1). […] Together, they represent nearly the full complement of C. diphtheriae’s CR domains (only the domains from ChtB and ChtC are missing, but they are expected to have similar binding properties as their paralogs, HtaB and ChtA, respectively). […] Similar measurements were made for the following protein pairs: HtaA^CR2/HtaB^CR, HtaA^CR1/HtaB^CR, HtaA^CR2/HtaA^CR1, ChtA^CR/HtaA^CR2, and ChtA^CR/HtaB^CR (Table S4).
(§3) nESI-MS was used for ligand (heme)-competition experiments between CR domain pairs to determine their relative heme dissociation constant Krelative (Krel) ([37], [56]). In this approach, two different CR domains (e.g. a >90% heme-loaded “heme donor” and a <10% heme-loaded “heme acceptor” CR domain) are mixed and allowed to come to equilibrium (>6 h, 24 °C). The resulting mixture is then analyzed by nESI-MS, where the apo- and holo-abundance of each CR domain is determined from the sum peak intensity from each of their charge states as described previously ([37]). The relative affinity between the CR pair tested can be determined by their nESI-MS abundances according to Equation 1, which is derived from the ratio of each CR’s KD for heme. Importantly, this analysis is independent of [heme] and Krel should be consistent across different concentrations of [heme donor] and [heme acceptor]; thus, we used at least three different holo-donor and apo-acceptor stoichiometry ratios to determine each Krel reported in Table S4.(eq. 1) KRelative=[CR^hemeacceptor][CR^hemedonor·heme]/[CR^hemedonor][CR^hemeacceptor·heme]=Ab(CR^hemeacceptor)Ab(CR^hemedonor·heme)/Ab(CR^hemedonor)Ab(CR^hemeacceptor·heme)
(§4) For nESI-MS heme-competition experiments, CR domains were first buffer-exchanged into 50 mM ammonium acetate (pH 6.9) using dialysis or gel filtration and protein concentration was determined by bicinchoninic acid assay or UV-visible absorbance at 280 nm. […]

[2] = molecular target: HtaA^CR2 (residues G344-G506); experiment: Estimated hemin KD from native ESI-MS partitioning; type: binding, Corynebacterium diphtheriae; conditions: read-out: estimated KD for hemin, from nESI-MS Krel using ITC value of ChtA^CR as reference
Excerpt: as §2, §3, §4

[3] = molecular target: HtaB^CR (HtaB, residues of 30–273); experiment: Estimated hemin KD from native ESI-MS partitioning; type: binding, Corynebacterium diphtheriae; conditions: read-out: estimated KD for hemin, from nESI-MS Krel using ITC value of ChtA^CR as reference
Excerpt: as §2, §3, §4

[4] = tested on: CR domains within C. diphtheriae’s hemin-uptake system; experiment: Hemin affinity across the cohort of CR domains (ITC and native MS partitioning); type: binding, Corynebacterium diphtheriae; conditions: across ChtA^CR, HtaB^CR, HtaA^CR1, HtaA^CR2
Excerpt: as §2
nESI-MS was used for ligand (heme)-competition experiments between CR domain pairs to determine their relative heme dissociation constant Krelative (Krel) ([37], [56]). […] The resulting mixture is then analyzed by nESI-MS, where the apo- and holo-abundance of each CR domain is determined from the sum peak intensity from each of their charge states as described previously ([37]). The relative affinity between the CR pair tested can be determined by their nESI-MS abundances according to Equation 1, which is derived from the ratio of each CR’s KD for heme. […]
as §4

[5] = tested on: HtaA^CR2 (donor) / ChtA^CR (acceptor); experiment: Native ESI-MS hemin partitioning HtaA^CR2 → ChtA^CR; type: binding, Corynebacterium diphtheriae
Experimental: as §3
(§5) For nESI-MS heme-competition experiments, CR domains were first buffer-exchanged into 50 mM ammonium acetate (pH 6.9) using dialysis or gel filtration and protein concentration was determined by bicinchoninic acid assay or UV-visible absorbance at 280 nm. Proteins were then mixed at donor:acceptor ratios ranging from 1:9 to 9:1 (but most often 1:3, 1:1, and 3:1), and incubated for at least 6 h at 24 °C. Equilibrated mixtures were then loaded into platinum-coated borosilicate emitter tips with an inner diameter of 200 to 500 nm pulled on a Sutter P-1000 Micropipette Puller and sprayed on a Q-Exactive UHMR Hybrid Quadrupole-Orbitrap Mass Spectrometer (Thermo Fisher Scientific).
(§6) Table of all CR pairs and stoichiometric ratios tested during the native ESI-MS heme equilibrium partitioning experiments. Apo or holo CR domains were mixed at various ratios (most commonly 1:3, 1:1, and 3:1, corresponding to 5:15 µM, 10:10 µM, or 15:5 µM, respectively).

[6] = tested on: HtaA^CR2 (donor) / HtaB^CR (acceptor); experiment: Native ESI-MS hemin partitioning HtaA^CR2 → HtaB^CR; type: binding, Corynebacterium diphtheriae
Experimental: as §3, §5, §6

[7] = tested on: HtaA^CR1 (donor) / HtaB^CR (acceptor); experiment: Native ESI-MS hemin partitioning HtaA^CR1 → HtaB^CR; type: binding, Corynebacterium diphtheriae
Experimental: as §3, §5, §6

[8] = tested on: HtaB^CR (donor) / HtaA^CR2 (acceptor); experiment: Native ESI-MS hemin partitioning HtaB^CR → HtaA^CR2; type: binding, Corynebacterium diphtheriae
Experimental: as §3, §5, §6

HtaA^CR1 / HtaA^CR2 = experiment: Native ESI-MS hemin partitioning HtaA^CR1 → HtaA^CR2; type: binding, Corynebacterium diphtheriae; conditions: transfer HtaA^CR1 → HtaA^CR2 (donor HtaA^CR2, acceptor HtaA^CR1)
Experimental: as §3, §5, §6

metHb = molecular target: T1, metHb (Homo sapiens, UniProt P68871+P69905); experiment: Hemin release kinetics from metHb (A405 plate reader assay with apo-acceptor); type: binding; conditions: 5 µM metHb, brackets 95% confidence interval; for kfast / kslow: 25 °C
T1 construct: blood-purified HbA in the carbonmonoxy form; from tissue; host or cells: blood
T1 sequence (P69905 2-142 limits assumed): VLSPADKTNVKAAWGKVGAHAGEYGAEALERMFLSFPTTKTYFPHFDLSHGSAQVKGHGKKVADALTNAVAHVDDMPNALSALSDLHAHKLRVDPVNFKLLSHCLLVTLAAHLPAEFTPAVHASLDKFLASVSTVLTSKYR
T1 sequence (P68871 2-147 limits assumed): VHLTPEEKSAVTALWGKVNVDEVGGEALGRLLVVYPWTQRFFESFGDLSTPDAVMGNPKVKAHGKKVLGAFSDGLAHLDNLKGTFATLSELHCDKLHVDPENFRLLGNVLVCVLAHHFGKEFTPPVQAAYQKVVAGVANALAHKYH
Experimental: Holo-metHb was injected to a final concentration of 5 μM on the heme basis in triplicate with 50 μM of the respective apo protein in a 384-well plate. The absorbance at 405 nm was measured every 2.5 min for 20 h in a SpectraMax iD3 plate reader (Molecular Devices). Experiments were performed at 25 °C to avoid apo-globin aggregation. Resulting curves were fit to a two-phase exponential decay equation in GraphPad Prism version 9.5.0 (GraphPad Software).
Bracketed values represent the 95% confidence interval for the fitted parameter values.

IsdH NEAT domain = molecular target: IsdH NEAT domain; set-up: method as in PMID 23649633, PMID 24245481; conditions: ITC, ref [57], [58]; cited from earlier work
IsdA NEAT domain = molecular target: IsdA NEAT domain; set-up: method as in PMID 23649633, PMID 24245481; conditions: ITC, ref [57], [58]; cited from earlier work
[9] = apo-acceptor Myoglobin^H64Y/V68F 50 µM

hemin
Kd (ChtA^CR Y178H): 54.8 ± 1.9 nM | Kd (ChtA^CR K177G): 23.6 ± 0.8 nM | Kd (ChtA^CR K177G + Y178H): 27.1 ± 9 nM | reduction of affinity (ChtA^CR Y178A; ChtA^CR Y178A versus WT): ~2 fold | Kd (ChtA^CR Y178A; ChtA^CR Y178A, 25 °C, average of three replicates): 46.6 ± 9.6 nM | decrease in binding affinity (ChtA^CR Y129A; ChtA^CR Y129A versus WT): > 25 fold | Kd (ChtA^CR Y129A; ChtA^CR Y129A, 25 °C, average of three replicates): > 500 nM | Kd [1]: 1.1 ± 0.3 nM | Kd [2]: 0.85 ± 0.15 nM | Kd [3]: 5.4 ± 1 nM | variation in binding strength [4]: ~25 fold | Krel inverse ([5]; AVERAGE): 24.96 ± 8.87 | Krel (donor/acceptor) ([5]; ratio 1:1): 0.05 | Krel inverse ([5]; ratio 1:1): 18.29 | Krel (donor/acceptor) ([5]; ratio 1:3): 0.05 | Krel inverse ([5]; ratio 1:3): 19.27 | Krel (donor/acceptor) ([5]; ratio 2:1): 0.03 and 0.06 | Krel inverse ([5]; ratio 3:1): 32.96 | Krel (donor/acceptor) ([5]; ratio (donor:acceptor) 3:1): 0.03 | Krel (donor/acceptor) ([6]; AVERAGE): 4.93 ± 0.88 | Krel inverse ([6]; AVERAGE): 0.21 ± 0.04 | Krel (donor/acceptor) ([6]; ratio 1:1): 3.92 | Krel inverse ([6]; ratio 1:1): 0.26 | Krel (donor/acceptor) ([6]; ratio 1:3): 5.31 | Krel inverse ([6]; ratio 1:3): 0.19 | Krel (donor/acceptor) ([6]; ratio 3:1): 5.56 | Krel inverse ([6]; ratio 3:1): 0.18 | Krel (donor/acceptor) ([7]; AVERAGE): 5.75 ± 1.4 | Krel inverse ([7]; AVERAGE): 0.18 ± 0.05 | Krel (donor/acceptor) ([7]; ratio 1:1): 7.51 and 4.09 and 6.88 | Krel inverse ([7]; ratio 1:1): 0.13 and 0.24 and 0.15 | Krel (donor/acceptor) ([7]; ratio 1:3): 4.46 and 4.42 | Krel inverse ([7]; ratio 1:3): 0.22 and 0.23 | Krel (donor/acceptor) ([7]; ratio 3:1): 6.16 and 6.76 | Krel inverse ([7]; ratio 3:1): 0.16 and 0.15 | Krel (donor/acceptor) ([8]; acceptor HtaA^CR2, AVERAGE): 0.18 ± 0.01 | Krel inverse ([8]; acceptor HtaA^CR2, AVERAGE): 5.66 ± 0.33 | Krel (donor/acceptor) ([8]; acceptor HtaA^CR2, ratio 1:1): 0.17 | Krel inverse ([8]; acceptor HtaA^CR2, ratio 1:1): 5.8 | Krel (donor/acceptor) ([8]; acceptor HtaA^CR2, ratio 1:3): 0.17 | Krel inverse ([8]; acceptor HtaA^CR2, ratio 1:3): 5.9 | Krel (donor/acceptor) ([8]; acceptor HtaA^CR2, ratio 3:1): 0.19 | Krel inverse ([8]; acceptor HtaA^CR2, ratio 3:1): 5.28 | Krel (donor/acceptor) (HtaA^CR1 / HtaA^CR2; AVERAGE): 0.84 ± 0.12 | Krel inverse (HtaA^CR1 / HtaA^CR2; AVERAGE): 1.2 ± 0.15 | Krel (donor/acceptor) (HtaA^CR1 / HtaA^CR2; ratio 1:1): 0.78 | Krel inverse (HtaA^CR1 / HtaA^CR2; ratio 1:1): 1.28 | Krel (donor/acceptor) (HtaA^CR1 / HtaA^CR2; ratio 1:3): 0.98 | Krel inverse (HtaA^CR1 / HtaA^CR2; ratio 1:3): 1.02 | Krel (donor/acceptor) (HtaA^CR1 / HtaA^CR2; ratio 3:1): 0.77 | Krel inverse (HtaA^CR1 / HtaA^CR2; ratio 3:1): 1.29 | kfast (metHb; apo-acceptor ChtA^CR 50 µM): 1.78 [1.51 - 2.1] hr^-1 | kslow (metHb; apo-acceptor ChtA^CR 50 µM): 0.18 [0.17 - 0.19] hr^-1 | %kfast (metHb; apo-acceptor ChtA^CR 50 µM): 35.52% [33.1% - 37.9%] | kfast (metHb; apo-acceptor HtaA^CR1 50 µM): 1.55 [1.13 - 2.15] hr^-1 | kslow (metHb; apo-acceptor HtaA^CR1 50 µM): 0.21 [0.18 - 0.23] hr^-1 | %kfast (metHb; apo-acceptor HtaA^CR1 50 µM): 33.11% [26.9% - 39%] | kfast (metHb; apo-acceptor HtaA^CR2 50 µM): 2.46 [2.23 - 2.72] hr^-1 | kslow (metHb; apo-acceptor HtaA^CR2 50 µM): 0.21 [0.19 to 0.22] hr^-1 | %kfast (metHb; apo-acceptor HtaA^CR2 50 µM): 41.11% [39.3% - 42.9%] | kslow (metHb; [9]): 0.13 [0.11 - 0.14] hr^-1 | %kfast (metHb; [9]): 34.6% [30.8% - 38.3%] | Kd (IsdH NEAT domain): 34 ± 8 nM | Kd (IsdA NEAT domain): 14 ± 4 nM
